Converted amounts (≈) assume the structure as drawn. Marks after values point to notes of the source that are not given here. *1 amine or outer side, *2 acyl side, *3 side chain or, on linkers, in order; H or OH if unused. Where a SMILES comes first, the peptide text is derived from it. Bridges are numbered along the chain shown (N, C = ends). CH2 = C([*:1])[*:2]
Legend:
RGS8 [1] = target: T1, RGS8 (Homo sapiens, UniProt P57771); design: method as in earlier work; settings: David Roman, in preparation; cited from earlier work
T1 construct: RGS8 full length; made in house
T1 sequence (P57771 1-180): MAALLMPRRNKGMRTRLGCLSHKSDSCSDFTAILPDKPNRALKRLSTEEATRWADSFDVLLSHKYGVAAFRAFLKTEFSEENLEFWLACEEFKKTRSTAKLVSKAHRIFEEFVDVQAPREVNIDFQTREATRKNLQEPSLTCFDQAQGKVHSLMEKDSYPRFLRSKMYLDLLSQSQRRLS

RGS4 [2] = target: T2, RGS4 (Rattus norvegicus, UniProt P49799); test: FCPIA (flow cytometry protein interaction assay), RGS4-Gαo interaction, wild type RGS4 (MBP-RGS4Δ51N); format: binding
T2 construct: made in house
T2 sequence (P49799 52-205 limits assumed): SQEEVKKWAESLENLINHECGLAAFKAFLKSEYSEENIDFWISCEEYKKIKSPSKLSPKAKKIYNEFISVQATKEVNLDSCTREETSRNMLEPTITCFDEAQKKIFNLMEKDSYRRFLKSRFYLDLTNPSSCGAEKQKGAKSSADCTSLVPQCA
Procedure: (§1) We recently described a bead-based screen in which 2.5 × 10^6 different peptide sequences were prepared as a OBOC library. Fluorescently labeled RGS4 was used to probe the library for peptides that bind RGS4 [5]. […] Since the majority of those hit peptides could bind tightly to the RGS without disrupting GAP activity, they were also tested in the flow cytometry protein interaction assay (FCPIA) (Figure 1), which measures the interaction between RGS4 and Gαo. In this method we used a Luminex flow cytometer to detect the binding of Alexa Fluor 532-labeled Gαo to biotinylated RGS4 on avidin beads in the presence of AMF (AlCl3, MgCl2, NaF and GDP) to put the Gα subunit into a transition state-like conformation. Peptides were tested at 50 μM except where limited by solubility (Table 1).
Figure 1 Hit peptides in the FCPIA. Hit peptides from Roof, et al. 2008 were tested at 50 μM unless otherwise indicated for ability to disrupt the RGS4-Gαo interaction as described using 25 nM Gα o-Alexa Fluor-532 and 5 nM wild type RGS4-biotin (mean ± S.E.M., n ≥ 3) *p < 0.05, **p < 0.01, ***p < 0.001 compared to no peptide.
(§2) Proteins were expressed, purified and labeled as described previously. The mutagenesis was done using the "QuickChange Multi Site-Directed Mutagenesis Kit" from Stratagene according to the manufacturer's protocol. The construct of RGS4 used in these studies is a maltose binding protein (MBP-) fusion protein of the RGS4 sequence from which the amphipathic N-terminal helix has been removed (i.e. MBP-RGS4Δ51N). For simplicity in the text, this will be referred to as RGS4. All other RGS proteins were human sequences and were used as Mpb fusions: RGS7 RGS domain (aa: 305–453), RGS8 full length, RGS16 full length, and RGS19ΔC11 (amino acids 1–209). To cleave RGS4Δ51N from the MBP-His6 construct for MS analysis, MBP-His6-RGS4Δ51N was treated with 15% MBP-His6-TEV protease S219V [11] for 22 hours at 4°C and purified over a Ni-NTA column.
FCPIA was performed as previously published.

[3] = Solubility in buffer by HPLC; format: physicochemical; settings: in buffer, determined by HPLC; for solubility: read-out: Buffer Solubility
Procedure: Soluble peptides were synthesized on Rink resin, cleaved and cyclized as described previously. Peptide purity (at least 95%) and solubility were verified by high-performance liquid chromatography and correct mass was verified by MS analysis. ALogP calculations are from. Peptides were prepared as 5 mM stocks in DMSO.

RGS4 [4] = target: T2, RGS4; test: FCPIA (flow cytometry protein interaction assay), RGS4-Gαo interaction, wild type RGS4 (MBP-RGS4Δ51N); format: binding; settings: peptide 100 μM
RGS8 [5] = target: T1, RGS8; test: FCPIA, Gαo binding to RGS8; settings: no wash, read-out: percent inhibition, RGS8
Procedure: as §1
5nd inhibited Gαo binding to a number of different RGS proteins (Figure 2). […] RGS19 and RGS7 are in the RZ and R7 families, respectively and show less inhibition by 5nd. Linear as well as bridged versions of peptide 5 were tested in the FCPIA since cyclization yields would most likely have been less then 100% in the synthesis of the library leaving some linear peptides present on each bead. […] This may be due to lack of structural rigidity necessary for the correct interaction of the peptide with the RGS protein or a role for chemical reactivity of the disulfide.
Figure 2 Characterization of hit 5. A) and B) Dose response curves for 5nd in the FCPIA with different RGS proteins (RGS Family), (mean ± S.E.M., n = 3) *p < 0.05, **p < 0.01, ***p < 0.001 compared to RGS4 at the same 5nd concentration. C) Peptides were tested at 50 μM as in Figure 1, (mean ± S.E.M., n ≥ 3) *p < 0.05, **p < 0.01, ***p < 0.001 compared to no peptide.
Figure 3 Irreversibility experiments. RGS-biotin on avidin beads was treated with 5nd (100 μM) or 5nm (100 μM) and then washed in buffer (with or without 1 mM DTT) or not washed and put in the FCPIA using RGS4 (A) or RGS8 (B) (mean ± S.E.M., n ≥ 2) *p < 0.05, **p < 0.01, ***p < 0.001 compared to no peptide (100%); #p < 0.05, ##p < 0.01, ###p < 0.001 compared to 5nd no wash.
as §2, with “To cleave RGS4Δ51N from the MBP-His6 construct for MS analysis, MBP-His6-RGS4Δ51N was treated with 15% MBP-His6-TEV protease S219V [11] for 22 hours at 4°C and purified over a Ni-NTA column.” left out

[6] = peptide 50 μM, 25 nM Gαo-Alexa Fluor-532, 5 nM RGS4-biotin

Compound | % Inhibition of RGS4-Gαo (RGS4 [2]; [6]) | solubility [3] [µM] | also measured
COS(=NS(=O)(=O)c1ccc(Cl)cc1)c1ccc([N+](=O)[O-])cc1 (stereo not drawn) [CCG-4986, methyl N-[(4-chlorophenyl)sulfonyl]-4-nitrobenzenesulfinimidoate] |  |  | activity against RGS8 (RGS8 [1]): no activity
CC(=O)N[C@@H](Cc1ccc(O)cc1)C(=O)N[C@@H](CC(N)=O)C(=O)N[C@H]1CSSC[C@@H](C(=O)N[C@@H](CCCCN)C(N)=O)NC(=O)[C@H](CCC(=O)O)NC(=O)CNC(=O)[C@H](CCC(N)=O)NC1=O [Peptide 1ad, Ac-YNCQGECK-NH2] (Ac-YNCQGECK-NH2; disulfide 3-7) | 14 ± 6% | 123 (≈ 121 µg/mL) | 
NCCCC[C@H](NC(=O)[C@@H]1CSSC[C@H](NC(=O)[C@H](CC(N)=O)NC(=O)[C@@H](N)Cc2ccc(O)cc2)C(=O)N[C@@H](CCC(N)=O)C(=O)NCC(=O)N[C@@H](CCC(=O)O)C(=O)N1)C(N)=O [Peptide 1nd, YNCQGECK-NH2] (H-YNCQGECK-NH2; disulfide 3-7) | 2 ± 4% | ≥ 420 | 
CC(=O)NCC(=O)N[C@H](C(=O)N[C@H]1CSSC[C@@H](C(=O)N[C@@H](Cc2c[nH]c3ccccc23)C(N)=O)NC(=O)[C@H]([C@@H](C)O)NC(=O)CNC(=O)[C@H](Cc2ccccc2)NC1=O)[C@@H](C)O [Peptide 2ad, Ac-GTCFGTCW-NH2] (Ac-GTCFGTCW-NH2; disulfide 3-7) |  | 30 (≈ 27.4 µg/mL) | % Inhibition of RGS4-Gαo (RGS4 [2]; peptide 10 μM): 10 ± 4 (10 μM) %
C[C@@H](O)[C@@H]1NC(=O)CNC(=O)[C@H](Cc2ccccc2)NC(=O)[C@@H](NC(=O)[C@@H](NC(=O)CN)[C@@H](C)O)CSSC[C@@H](C(=O)N[C@@H](Cc2c[nH]c3ccccc23)C(N)=O)NC1=O [Peptide 2nd, GTCFGTCW-NH2] (H-GTCFGTCW-NH2; disulfide 3-7) | 19 ± 3** % | 464 (≈ 404 µg/mL) | 
CC(=O)N[C@@H](CC(C)C)C(=O)N[C@H](C(=O)N[C@H]1CSSC[C@@H](C(=O)N[C@@H](CCC(N)=O)C(N)=O)NC(=O)[C@H](Cc2ccc(O)cc2)NC(=O)CNC(=O)[C@H](CCCCN)NC1=O)C(C)C [Peptide 3ad, Ac-LVCKGYCQ-NH2] (Ac-LVCKGYCQ-NH2; disulfide 3-7) | 10 ± 3% | 427 (≈ 407 µg/mL) | 
CC(C)C[C@H](N)C(=O)N[C@H](C(=O)N[C@H]1CSSC[C@@H](C(=O)N[C@@H](CCC(N)=O)C(N)=O)NC(=O)[C@H](Cc2ccc(O)cc2)NC(=O)CNC(=O)[C@H](CCCCN)NC1=O)C(C)C [Peptide 3nd, LVCKGYCQ-NH2] (H-LVCKGYCQ-NH2; disulfide 3-7) | 12 ± 2% | ≥ 470 | 
CSCC[C@@H]1NC(=O)[C@@H](NC(=O)[C@@H](NC(=O)[C@H](CCCCN)NC(C)=O)C(C)C)CSSC[C@@H](C(=O)N[C@H](C(N)=O)[C@@H](C)O)NC(=O)CNC(=O)CNC1=O [Peptide 4ad, Ac-KVCMGGCT-NH2] (Ac-KVCMGGCT-NH2; disulfide 3-7) | 9 ± 6% | 459 (≈ 384 µg/mL) | 
CSCC[C@@H]1NC(=O)[C@@H](NC(=O)[C@@H](NC(=O)[C@@H](N)CCCCN)C(C)C)CSSC[C@@H](C(=O)N[C@H](C(N)=O)[C@@H](C)O)NC(=O)CNC(=O)CNC1=O [Peptide 4nd, KVCMGGCT-NH2] (H-KVCMGGCT-NH2; disulfide 3-7) | 4 ± 3% | ≥ 470 | 
CC(=O)N[C@@H](Cc1ccc(O)cc1)C(=O)N[C@@H](Cc1c[nH]c2ccccc12)C(=O)N[C@H]1CSSC[C@@H](C(=O)N[C@@H](CCCCN)C(N)=O)NC(=O)[C@H](CC(C)C)NC(=O)CNC(=O)[C@H](CCCCN)NC1=O [Peptide 5ad, Ac-YWCKGLCK-NH2] (Ac-YWCKGLCK-NH2; disulfide 3-7) | 37 ± 3*** % | 464 (≈ 482 µg/mL) | 
CC(=O)N[C@@H](Cc1ccc(O)cc1)C(=O)N[C@@H](Cc1c[nH]c2ccccc12)C(=O)N[C@@H](CS)C(=O)N[C@@H](CCCCN)C(=O)NCC(=O)N[C@@H](CC(C)C)C(=O)N[C@@H](CS)C(=O)N[C@@H](CCCCN)C(N)=O [Peptide 5al, Ac-YWCKGLCK-NH2] (Ac-YWCKGLCK-NH2) |  | 460 (≈ 479 µg/mL) | 
CC(C)C[C@H](NC(=O)CNC(=O)[C@H](CCCCN)NC(=O)[C@H](CS)NC(=O)[C@H](Cc1c[nH]c2ccccc12)NC(=O)[C@@H](N)Cc1ccc(O)cc1)C(=O)N[C@@H](CS)C(=O)N[C@@H](CCCCN)C(N)=O [Peptide 5nl, YWCKGLCK-NH2] (H-YWCKGLCK-NH2) |  | 465 (≈ 465 µg/mL) | 
CC(C)C[C@@H]1NC(=O)CNC(=O)[C@H](CCCCN)NC(=O)[C@@H](NC(=O)[C@H](Cc2c[nH]c3ccccc23)NC(=O)[C@@H](N)Cc2ccc(O)cc2)CSCSC[C@@H](C(=O)N[C@@H](CCCCN)C(N)=O)NC1=O [Peptide 5nm, YWCKGLCK-NH2] (H-YWCKGLCK-NH2; linker 3-7 via CH2) |  | ≥ 470 | % Inhibition of RGS4-Gαo (RGS4 [4]): 3 ± 0.1 (100 μM) %; inhibition at 100 µM (RGS8 [5]): 18 ± 1%
CC(=O)N[C@@H](CCCCN)C(=O)N[C@@H](Cc1c[nH]cn1)C(=O)N[C@H]1CSSC[C@@H](C(=O)N[C@@H](Cc2ccc(O)cc2)C(N)=O)NC(=O)[C@H](Cc2ccccc2)NC(=O)CNC(=O)[C@H](Cc2ccc(O)cc2)NC1=O [Peptide 6ad, Ac-KHCYGFCY-NH2] (Ac-KHCYGFCY-NH2; disulfide 3-7) | 27 ± 4*** % | 421 (≈ 446 µg/mL) | 
NCCCC[C@H](N)C(=O)N[C@@H](Cc1c[nH]cn1)C(=O)N[C@H]1CSSC[C@@H](C(=O)N[C@@H](Cc2ccc(O)cc2)C(N)=O)NC(=O)[C@H](Cc2ccccc2)NC(=O)CNC(=O)[C@H](Cc2ccc(O)cc2)NC1=O [Peptide 6nd, KHCYGFCY-NH2] (H-KHCYGFCY-NH2; disulfide 3-7) |  |  | % Inhibition of RGS4-Gαo (RGS4 [2]; peptide 25 μM): 23 ± 15 (25 μM) * %; Buffer Solubility [3]: Low
CC[C@H](C)[C@@H]1NC(=O)CNC(=O)[C@H]([C@@H](C)O)NC(=O)[C@@H](NC(=O)[C@H](CCCCN)NC(=O)[C@@H](NC(C)=O)C(C)C)CSSC[C@@H](C(=O)N[C@@H](CCC(=O)O)C(N)=O)NC1=O [YJ34, Ac-Val-Lys-c [Cys-Thr-Gly-Ile-Cys]-Glu-NH2, S-S, reference compound] (Ac-VKCTGICE-NH2; disulfide 3-7) |  | 80 (≈ 71.3 µg/mL) | % Inhibition of RGS4-Gαo (RGS4 [2]; peptide 40 μM): -17 ± 4 (40 μM) %

Source: publication PMC2700083, “A covalent peptide inhibitor of RGS4 identified in a focused one-bead, one compound library screen” (BMC Pharmacology, 2009)
